Measurements published in ChEMBL document CHEMBL4007467, “Effects of 6-paradol, an unsaturated ketone from gingers, on cytochrome P450-mediated drug metabolism” (Bioorg Med Chem Lett, 2017).

Assays:
Format in all cases: ADME
Parameters in all cases: scale not given: the % may be the effect or the level left
CYP2C9 [1] = target: T1, CYP2C9 (Homo sapiens, UniProt P11712); test: Inhibition of CYP2C9 in human liver microsomes assessed as enzyme-mediated metabolite formation at 30 uM using diclofenac as substrate preincubated for 20 mins followed by substrate addition measured after 30 mins in presence of NADPH by LC-MS/MS analysis relative to control; conditions: probe diclofenac, read-out: Activity
T1 sequence (P11712 whole entry): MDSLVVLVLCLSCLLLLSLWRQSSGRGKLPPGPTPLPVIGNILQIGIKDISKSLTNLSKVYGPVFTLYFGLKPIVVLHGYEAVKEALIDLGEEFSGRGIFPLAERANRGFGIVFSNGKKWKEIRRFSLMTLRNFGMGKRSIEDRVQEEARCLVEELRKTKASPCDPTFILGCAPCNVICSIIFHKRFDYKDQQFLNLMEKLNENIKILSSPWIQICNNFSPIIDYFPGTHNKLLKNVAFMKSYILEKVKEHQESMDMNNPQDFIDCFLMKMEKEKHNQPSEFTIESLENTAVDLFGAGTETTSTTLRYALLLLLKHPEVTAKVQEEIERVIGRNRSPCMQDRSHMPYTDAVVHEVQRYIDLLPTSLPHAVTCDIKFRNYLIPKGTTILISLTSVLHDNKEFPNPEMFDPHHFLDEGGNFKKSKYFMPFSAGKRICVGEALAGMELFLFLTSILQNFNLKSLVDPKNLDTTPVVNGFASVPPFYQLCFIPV

CYP2C9 [2] = target: T1, CYP2C9; test: Inhibition of CYP2C9 in human liver microsomes assessed as enzyme-mediated metabolite formation at 3 uM using diclofenac as substrate incubated for 5 mins followed by NADPH addition measured after 30 mins by LC-MS/MS analysis relative to control; conditions: probe diclofenac, read-out: Activity
CYP2B6 [3] = target: T2, CYP2B6 (Homo sapiens, UniProt P20813); test: Inhibition of CYP2B6 in human liver microsomes assessed as enzyme-mediated metabolite formation at 0.1 uM using bupropion as substrate incubated for 5 mins followed by NADPH addition measured after 30 mins by LC-MS/MS analysis relative to control; conditions: probe bupropion, read-out: Activity
T2 sequence (P20813 whole entry): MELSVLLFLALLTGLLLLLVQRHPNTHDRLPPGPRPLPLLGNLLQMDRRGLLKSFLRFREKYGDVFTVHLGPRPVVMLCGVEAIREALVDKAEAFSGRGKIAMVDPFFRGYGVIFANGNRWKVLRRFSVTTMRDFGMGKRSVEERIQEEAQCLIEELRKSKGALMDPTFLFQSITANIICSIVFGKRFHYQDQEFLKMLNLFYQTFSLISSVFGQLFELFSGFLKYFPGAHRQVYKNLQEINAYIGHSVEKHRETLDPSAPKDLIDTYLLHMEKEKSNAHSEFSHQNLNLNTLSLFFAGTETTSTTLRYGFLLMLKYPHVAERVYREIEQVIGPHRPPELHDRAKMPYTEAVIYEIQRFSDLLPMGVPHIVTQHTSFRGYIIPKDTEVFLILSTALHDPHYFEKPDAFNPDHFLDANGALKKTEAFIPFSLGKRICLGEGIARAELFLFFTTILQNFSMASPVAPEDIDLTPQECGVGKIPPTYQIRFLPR

CYP2C8 = target: T3, CYP2C8 (Homo sapiens, UniProt P10632); test: Inhibition of CYP2C8 in human liver microsomes assessed as enzyme-mediated metabolite formation at 30 uM using paclitaxel as substrate incubated for 5 mins followed by NADPH addition measured after 30 mins by LC-MS/MS analysis relative to control; conditions: probe paclitaxel, read-out: Activity
T3 sequence (P10632 whole entry): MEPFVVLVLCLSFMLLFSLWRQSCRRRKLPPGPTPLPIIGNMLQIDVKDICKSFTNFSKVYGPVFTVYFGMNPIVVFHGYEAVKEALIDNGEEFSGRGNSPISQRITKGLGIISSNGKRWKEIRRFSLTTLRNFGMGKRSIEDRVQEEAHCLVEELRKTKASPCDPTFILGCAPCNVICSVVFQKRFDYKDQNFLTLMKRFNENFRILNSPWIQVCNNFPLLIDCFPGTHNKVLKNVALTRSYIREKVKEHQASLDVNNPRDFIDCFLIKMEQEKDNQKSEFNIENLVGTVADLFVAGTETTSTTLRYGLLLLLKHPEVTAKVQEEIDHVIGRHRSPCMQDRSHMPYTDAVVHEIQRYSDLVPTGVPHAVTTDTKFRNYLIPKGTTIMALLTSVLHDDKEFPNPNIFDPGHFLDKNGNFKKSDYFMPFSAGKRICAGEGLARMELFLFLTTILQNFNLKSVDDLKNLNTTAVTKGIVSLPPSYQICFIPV

CYP2B6 [4] = target: T2, CYP2B6; test: Inhibition of CYP2B6 in human liver microsomes assessed as enzyme-mediated metabolite formation at 0.1 uM using bupropion as substrate preincubated for 20 mins followed by substrate addition measured after 30 mins in presence of NADPH by LC-MS/MS analysis relative to control; conditions: probe bupropion, read-out: Activity
CYP2C9 [5] = target: T1, CYP2C9; test: Inhibition of CYP2C9 in human liver microsomes assessed as enzyme-mediated metabolite formation at 10 uM using diclofenac as substrate preincubated for 20 mins followed by substrate addition measured after 30 mins in presence of NADPH by LC-MS/MS analysis relative to control; conditions: probe diclofenac, read-out: Activity
CYP2C19 = CYP2C19 (Homo sapiens, UniProt P33261); test: Inhibition of CYP2C19 in human liver microsomes assessed as enzyme-mediated metabolite formation at 10 uM using (S)-mephenytoin as substrate preincubated for 20 mins followed by substrate addition measured after 30 mins in presence of NADPH by LC-MS/MS analysis relative to control; conditions: probe (S)-mephenytoin, read-out: Activity
CYP2C19, sequence (P33261 whole entry): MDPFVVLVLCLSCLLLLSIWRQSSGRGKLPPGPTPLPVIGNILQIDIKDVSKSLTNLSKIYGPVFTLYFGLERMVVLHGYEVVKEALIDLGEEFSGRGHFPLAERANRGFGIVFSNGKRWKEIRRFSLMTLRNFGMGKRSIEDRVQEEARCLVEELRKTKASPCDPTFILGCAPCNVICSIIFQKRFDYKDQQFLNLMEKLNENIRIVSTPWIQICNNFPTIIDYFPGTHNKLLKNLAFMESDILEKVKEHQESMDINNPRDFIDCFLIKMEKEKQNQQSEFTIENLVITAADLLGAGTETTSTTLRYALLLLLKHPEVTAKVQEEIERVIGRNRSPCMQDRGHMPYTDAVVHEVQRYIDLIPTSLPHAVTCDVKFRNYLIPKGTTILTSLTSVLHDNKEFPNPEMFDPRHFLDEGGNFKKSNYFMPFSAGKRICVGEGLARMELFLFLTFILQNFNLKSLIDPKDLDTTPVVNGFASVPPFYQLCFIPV

CYP1A2 = target: T4, CYP1A2 (Homo sapiens, UniProt P05177); test: Inhibition of CYP1A2 in human liver microsomes assessed as enzyme-mediated metabolite formation at 0.1 uM using phenacetin as substrate preincubated for 20 mins followed by substrate addition measured after 30 mins in presence of NADPH by LC-MS/MS analysis relative to control; conditions: probe phenacetin, read-out: Activity
T4 sequence (P05177 whole entry): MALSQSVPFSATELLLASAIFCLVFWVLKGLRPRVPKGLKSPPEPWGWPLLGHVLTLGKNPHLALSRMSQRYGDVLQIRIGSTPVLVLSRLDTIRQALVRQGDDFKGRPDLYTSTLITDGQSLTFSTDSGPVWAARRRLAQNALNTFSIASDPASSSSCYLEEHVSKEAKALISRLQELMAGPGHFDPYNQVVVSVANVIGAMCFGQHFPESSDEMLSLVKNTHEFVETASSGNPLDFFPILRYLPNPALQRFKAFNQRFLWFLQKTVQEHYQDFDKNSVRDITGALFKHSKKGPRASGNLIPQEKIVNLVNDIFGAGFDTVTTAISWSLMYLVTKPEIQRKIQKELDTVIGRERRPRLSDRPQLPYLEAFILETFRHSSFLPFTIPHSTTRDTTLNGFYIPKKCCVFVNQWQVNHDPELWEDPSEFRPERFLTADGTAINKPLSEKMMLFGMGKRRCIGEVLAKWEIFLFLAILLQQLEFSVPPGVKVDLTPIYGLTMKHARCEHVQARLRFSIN

CYP2A6 = target: T5, CYP2A6 (Homo sapiens, UniProt P11509); test: Inhibition of CYP2A6 in human liver microsomes assessed as enzyme-mediated metabolite formation at 3 uM using coumarin as substrate incubated for 5 mins followed by NADPH addition measured after 30 mins by LC-MS/MS analysis relative to control; conditions: probe coumarin, read-out: Activity
T5 sequence (P11509 whole entry): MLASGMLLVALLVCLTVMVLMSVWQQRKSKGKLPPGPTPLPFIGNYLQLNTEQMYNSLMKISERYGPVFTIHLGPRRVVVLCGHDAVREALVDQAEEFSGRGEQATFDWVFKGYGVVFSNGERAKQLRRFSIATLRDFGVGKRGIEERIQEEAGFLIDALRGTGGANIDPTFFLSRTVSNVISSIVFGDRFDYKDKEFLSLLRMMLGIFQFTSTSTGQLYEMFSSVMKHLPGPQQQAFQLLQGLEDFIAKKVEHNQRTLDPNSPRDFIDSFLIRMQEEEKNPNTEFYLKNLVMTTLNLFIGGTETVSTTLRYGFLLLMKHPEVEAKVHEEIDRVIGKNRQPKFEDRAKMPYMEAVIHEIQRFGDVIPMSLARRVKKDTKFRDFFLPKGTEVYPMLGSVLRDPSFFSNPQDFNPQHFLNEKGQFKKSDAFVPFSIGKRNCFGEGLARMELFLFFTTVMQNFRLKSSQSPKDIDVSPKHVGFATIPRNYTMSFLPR

activity at 0.5 h, 30 µM (CYP2C9 [1]): 46.9%
activity at 0.5 h, 3 µM (CYP2C9 [2]): 68.1%
activity at 0.5 h, 0.1 µM (CYP2B6 [3]): 93.6%
activity at 0.5 h, 30 µM (CYP2C8): 35.5%
activity at 0.5 h, 0.1 µM (CYP2B6 [4]): 88.5%
activity at 0.5 h, 10 µM (CYP2C9 [5]): 60.8%
activity at 0.5 h, 10 µM (CYP2C19): 44.5%
activity at 0.5 h, 0.1 µM (CYP1A2): 97.2%
activity at 0.5 h, 3 µM (CYP2A6): 80.8%
SMILES: CCCCCCCC(=O)CCc1ccc(O)c(OC)c1
